The values that follow come from patent publication US7169414B2, “Antimicrobial agents isolated from aloe vera” (priority 1998, dated 2007).

SMILES strings stand for the structures.

The assay relates to bacterial growth. In words: culture killing assays of known Aloe components. The assay is classed as cell-based. The following applies: purified extracts of known Aloe components. On the procedure: Previously isolated and identified individual aloe products as antimicrobial products were studied to confirm that these compounds were not responsible for the anti-bacterial activity identified herein. Purified extracts of several known Aloe components were provided by Dr. I. Danhoff, including: Albarin, Awbarin, Anthraquinone, Aloin A, Aloin A & B, Aloe emodin, and Yellow sap components were tested in like assays.

As for `O=C1c2c(O)cccc2C([C@@H]2O[C@H](CO)[C@@H](O)[C@H](O)[C@H]2O)c2cc(CO)cc(O)c21` (some centres unmarked) [Aloin A], the “inhibition of bacterial growth” value was “showed any inhibition of bacterial growth”.
For `O=C1c2ccccc2C(=O)c2ccccc21` [Anthraquinone] the value was “only Aloin A and Aloe emodin showed any inhibition of bacterial growth”.
